Test results reported in patent US20090176817A1, “Method of Treatment of Diarrhea-Predominant Irritable Bowel Syndrome in a Subject” (priority 2005, published 2009).
Marks after values point to notes of the source that are not given here.

Columns and labels:
human P-glycoprotein = target: T1, human P-glycoprotein (Homo sapiens, UniProt P08183); test: Study K.241.6026: in vitro transport by P-glycoprotein in PK 1 LLC MDR cells; format: in vitro ADME; conditions: human
T1 construct: expressed in transfected cells; host or cells: PK 1 LLC MDR cells (LLC-PK1 porcine kidney cells expressing human MDR1, by own knowledge)

[1] = Study S.241.1.103: 14C mass balance, 8 mg oral and IV; format: in vivo, human; conditions: human, in vivo
Protocol: The extent of absorption, distribution, metabolism, and elimination of cilansetron has been examined in an open-label, randomized, two period, crossover, mass balance study in 6 healthy male subjects who were treated with a single oral and single […] (30-minute infusion) of 8 mg ^14C-labeled (50 K μCi) cilansetron, with a washout of at least 2 weeks between periods. The ^14C-cilansetron was appropriately labeled in the aromatic ring and the label was therefore not metabolically labile. Serial blood samples, urine collection, and fecal collection were performed up to 144 hours following each dose. ^14C-radioactivity was measured in plasma, whole blood, urine, and feces, and unchanged cilansetron was measured in plasma and urine. Identification of metabolites of cilansetron was performed in plasma, urine, and feces. The results of this study are presented in Table 2.7.2.3.15 and the mean concentration-time plots for ^14C-radioactivity and unchanged cilansetron are shown in FIG. 24 and FIG. 25.
Cilansetron and metabolite profiles in plasma, urine, and feces were evaluated using HPLC separation followed by determination of radioactivity using scintillation counting. Cilansetron, (4R)-hydroxy cilansetron, and (4S)-hydroxy cilansetron accounted for 29.3%, 25.7%, and 13.8% of the total radioactivity, respectively, in plasma at 6 hours after oral administration, and for 46.2%, 20.0% and 14.1%3 of the total radioactivity in plasma at 3 hours after IV administration. The cumulative percent of cilansetron and 4-hydroxy metabolites excreted in urine over a 48-hour interval following dosing was 0.5% and 32.8% of the dose, respectively, following oral dosing, and 1.1% and 31.9% of the dose following IV dosing. In the case of fecal excretion over a 96-hour postdose, cilansetron, (4R)-hydroxy cilansetron, and (4S)-hydroxy cilansetron accounted for 1.2%, 6.9%, and 4.6% of the dose following oral administration, and 1.3%, 5.1%, and 11.3% of the dose following IV administration.

[2] = Study S.241.1.109: interaction with paroxetine 20 mg QD; format: in vivo, human; conditions: in vivo
Protocol: (§1) In an open-label, randomized, parallel-group study in three groups of 12 healthy, male and female subjects (aged 19 to 45 years), subjects received a 2 mg single dose of cilansetron on Day 1, 2 mg TID on Days 2-13, and a 2 mg single dose on Day 14. […] All morning doses of cilansetron and enzyme inhibitors were administered immediately after a standard breakfast. […] For each treatment group, log-transformed cilansetron AUC(0-τ) and Cmax values on Day 14 (cilansetron+enzyme inhibitor) were compared statistically versus values on Day 7 (cilansetron alone).
FIG. 50, FIG. 51, and FIG. 52 present geometric mean steady-state plasma concentration-time profiles for cilansetron and its 4-hydroxy metabolites in the absence and presence of concomitant paroxetine. […] These increases in exposure are not clinically significant.

[3] = Study S.241.1.109: interaction with fluvoxamine 50 mg QD; format: in vivo, human; conditions: both, human, in vivo
Protocol: as §1
FIG. 42, FIG. 43, and FIG. 44 present geometric mean steady-state plasma concentration-time profiles for cilansetron and its 4-hydroxy metabolites in the absence and presence of concomitant fluvoxamine.

[4] = Study S.241.1.109: single and multiple dose pharmacokinetics 2 mg TID; format: in vivo, human; conditions: human, in vivo
Protocol: In an open-label, randomized, parallel-group study in 36 healthy, male and female subjects (19-45 years), subjects received a 2 mg single dose of cilansetron on Day 1 and 2 mg TID on Days 2-7. The morning doses on Days 1 and 7 were administered immediately after a standard breakfast. Serial blood samples for the measurement of single-dose and steady-state pharmacokinetics of cilansetron and its main metabolites, (4R)-hydroxy cilansetron and (4S)-hydroxy cilansetron, were collected on Day 1 (single dose) up to 24 hours postdose and on Day 7 (multiple dose) up to 8 hours postdose.

human 5-HT3 receptor = target: T2, human 5-HT3 receptor (Homo sapiens, UniProt P46098); test: 5-HT3 receptor binding
T2 sequence (P46098 24-478): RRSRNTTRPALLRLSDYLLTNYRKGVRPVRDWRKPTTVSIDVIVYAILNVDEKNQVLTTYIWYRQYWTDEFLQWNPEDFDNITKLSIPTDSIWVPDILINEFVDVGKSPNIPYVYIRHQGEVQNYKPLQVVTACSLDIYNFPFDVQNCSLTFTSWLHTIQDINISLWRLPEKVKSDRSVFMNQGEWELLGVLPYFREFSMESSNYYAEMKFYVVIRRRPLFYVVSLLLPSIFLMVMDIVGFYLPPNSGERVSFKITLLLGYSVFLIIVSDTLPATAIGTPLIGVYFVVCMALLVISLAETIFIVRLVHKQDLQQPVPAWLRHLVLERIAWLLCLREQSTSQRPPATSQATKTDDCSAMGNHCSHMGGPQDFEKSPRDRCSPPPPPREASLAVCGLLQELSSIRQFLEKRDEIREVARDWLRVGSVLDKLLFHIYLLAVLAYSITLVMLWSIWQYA

T1 sequence (P08183 whole entry): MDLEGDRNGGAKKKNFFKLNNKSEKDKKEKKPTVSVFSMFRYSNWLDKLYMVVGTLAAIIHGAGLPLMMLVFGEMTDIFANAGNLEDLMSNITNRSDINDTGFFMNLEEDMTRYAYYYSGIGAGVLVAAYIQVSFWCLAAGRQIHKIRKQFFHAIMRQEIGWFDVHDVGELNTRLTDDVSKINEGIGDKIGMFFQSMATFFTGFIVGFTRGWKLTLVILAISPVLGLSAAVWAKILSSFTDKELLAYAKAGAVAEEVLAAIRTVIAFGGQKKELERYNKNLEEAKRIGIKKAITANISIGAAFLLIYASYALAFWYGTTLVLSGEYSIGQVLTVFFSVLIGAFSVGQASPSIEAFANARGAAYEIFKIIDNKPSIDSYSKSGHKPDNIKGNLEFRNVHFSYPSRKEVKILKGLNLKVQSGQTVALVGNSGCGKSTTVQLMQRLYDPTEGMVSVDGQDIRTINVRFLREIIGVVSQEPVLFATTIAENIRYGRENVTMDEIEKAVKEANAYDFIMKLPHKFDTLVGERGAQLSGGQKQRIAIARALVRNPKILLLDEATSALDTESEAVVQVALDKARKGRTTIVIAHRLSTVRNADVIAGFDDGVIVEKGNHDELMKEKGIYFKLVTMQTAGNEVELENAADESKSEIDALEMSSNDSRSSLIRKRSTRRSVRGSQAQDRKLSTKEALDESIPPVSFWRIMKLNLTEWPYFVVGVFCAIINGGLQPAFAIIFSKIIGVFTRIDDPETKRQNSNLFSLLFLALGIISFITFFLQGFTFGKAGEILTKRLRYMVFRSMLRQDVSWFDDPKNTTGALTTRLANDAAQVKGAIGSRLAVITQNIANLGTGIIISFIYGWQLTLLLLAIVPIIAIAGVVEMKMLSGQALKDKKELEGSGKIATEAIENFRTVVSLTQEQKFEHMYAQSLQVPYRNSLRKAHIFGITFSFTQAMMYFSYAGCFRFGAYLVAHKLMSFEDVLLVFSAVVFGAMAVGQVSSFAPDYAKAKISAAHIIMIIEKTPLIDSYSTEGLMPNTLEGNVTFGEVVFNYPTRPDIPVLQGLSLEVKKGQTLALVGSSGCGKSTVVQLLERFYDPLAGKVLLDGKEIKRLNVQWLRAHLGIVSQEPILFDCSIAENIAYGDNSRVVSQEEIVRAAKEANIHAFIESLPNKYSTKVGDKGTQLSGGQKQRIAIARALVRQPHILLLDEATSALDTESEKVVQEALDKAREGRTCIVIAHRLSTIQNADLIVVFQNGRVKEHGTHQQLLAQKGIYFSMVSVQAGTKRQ

Q: With `Cc1nccn1C[C@H]1CCc2c(c3cccc4c3n2CCC4)C1=O` [Cilansetron, (R)-(−)-4,5,6,8,9,10-hexahydro-10-[(2-methyl-1H-imidazol-1-yl)methyl]-11H-pyrido-[3,2,1-jk]-carbazol-11-one] as the compound, how does the “Concentration required to saturate P-glycoprotein in vitro” value (human P-glycoprotein) read?
A: Its value is “above 1000 ng/mL”.

Q: And the “Membrane Passage” value (human P-glycoprotein; 3 h)?
A: The value was 33%.

Q: What about the “P-gp Factor” value (human P-glycoprotein; 3 h) of the same compound?
A: The value was 3.

Q: And the “AUC(0-last)” value ([1]; iv)?
A: The value was 999 (223) ng[-equiv] · h/mL.

Q: What about the “AUC(0-inf)” value ([1]; iv, 8 mg) of the same compound?
A: The value was 1217 (299) ng[-equiv] · h/mL.

Q: What about the “AUC(0-last)” value ([1]; po) of the same compound?
A: The value was 908 (244) ng[-equiv] · h/mL.

Q: And the “CL/F (blood)” value ([1]; po)?
A: The value was 2857 (1912) mL/min.

Q: What about the Cmax ([1]; po) of the same compound?
A: The Cmax was 171 (63) ng[-equiv]/mL.

Q: And the “AUC(0-inf)” value ([1]; po, 8 mg)?
A: Its value is 1047 (248) ng[-equiv] · h/mL.

Q: And the “Absorption calculated from percentage renal recovery” value ([1]; male)?
A: Its value is 99.8%.

Q: What about the “Share of urinary excretion within 24 hours of dosing” value ([1]; male) of the same compound?
A: The value was at least 87%.

Q: And the “Dose recovered in urine as unchanged drug” value ([1]; male, 144 h)?
A: The value was under 1%.

Q: And the AUC(0-inf) ([1]; male, iv)?
A: The AUC(0-inf) was 209 ng·h/mL.

Q: And the AUC(0-t) ([1]; male, iv)?
A: Its AUC(0-t) is 200 ng·h/mL.

Q: What about the “CL (plasma)” value ([1]; male, iv) of the same compound?
A: The value was 118 (42) mL/min.

Q: What about the “Cumulative percent excreted in urine over 48 hours” value ([1]; male, iv) of the same compound?
A: Its value is 1.1 % of the dose.

Q: And the “Fecal excretion over 96 hours” value ([1]; male, iv)?
A: Its value is 1.3 % of the dose.

Q: What about the “Radioactivity in blood cells” value ([1]; male, iv) of the same compound?
A: Its value is 9.5 (4.1) %.

Q: What about the “Recovery, Fecal” value ([1]; male, iv) of the same compound?
A: The value was 28.9 (1.8) %.

Q: And the “Recovery, Total” value ([1]; male, iv)?
A: The value was 92.3 (1.5) %.

Q: What about the T½ ([1]; male, iv) of the same compound?
A: The T½ was 107 h.

Q: What about the Vd ([1]; male, iv) of the same compound?
A: Its Vd is 85.3 L.

Q: What about the Vz ([1]; male, iv) of the same compound?
A: The Vz was 1001 (162) L.

Q: What about the half-life ([1]; male, iv) of the same compound?
A: Its half-life is 1.51 h.

Q: What about the “Share of total radioactivity in plasma” value ([1]; male, iv, 3 h) of the same compound?
A: Its value is 46.2%.

Q: And the clearance ([1]; male, iv, CL (blood))?
A: Its clearance is 1040 mL/min.

Q: What about the clearance ([1]; male, iv, CL (plasma)) of the same compound?
A: Its clearance is 655 mL/min.

Q: What about the AUC(0-inf) ([1]; male, po) of the same compound?
A: Its AUC(0-inf) is 98.2 ng·h/mL.

Q: And the AUC(0-t) ([1]; male, po)?
A: Its AUC(0-t) is 91.4 ng·h/mL.

Q: And the “Absorption of orally administered cilansetron” value ([1]; male, po)?
A: Its value is “higher than 90%”.

Q: What about the Cmax ([1]; male, po) of the same compound?
A: Its Cmax is 52.9 ng/mL.

Q: What about the “Cumulative percent excreted in urine over 48 hours” value ([1]; male, po) of the same compound?
A: Its value is 0.5 % of the dose.

Q: And the “Fecal excretion over 96 hours” value ([1]; male, po)?
A: Its value is 1.2 % of the dose.

Q: What about the “Radioactivity in blood cells” value ([1]; male, po) of the same compound?
A: Its value is 10.5 (5.7) %.

Q: What about the “Recovery, Fecal” value ([1]; male, po) of the same compound?
A: Its value is 27.5 (3.2) %.

Q: What about the “Recovery, Total” value ([1]; male, po) of the same compound?
A: The value was 90.8 (2.2) %.

Q: What about the Tmax ([1]; male, po) of the same compound?
A: Its Tmax is 0.51 h.

Q: What about the Vd/F ([1]; male, po) of the same compound?
A: The Vd/F was 155 L.

Q: And the Vz/F ([1]; male, po)?
A: The Vz/F was 836 (275) L.

Q: What about the half-life ([1]; male, po) of the same compound?
A: The half-life was 1.23 h.

Q: What about the “Share of total radioactivity in plasma” value ([1]; male, po, 6 h) of the same compound?
A: Its value is 29.3%.

Q: And the bioavailability ([1]; male, po, Absolute Bioavailability)?
A: The bioavailability was 49%.

Q: And the “Mean AUC increase with paroxetine” value ([2]; both, human)?
A: Its value is 20%.

Q: What about the “Mean Cmax increase with paroxetine” value ([2]; both, human) of the same compound?
A: The value was 36%.

Q: And the Effect of paroxetine [2]?
A: Its Effect of paroxetine is “no significant effect”.

Q: What about the “Increase in cilansetron exposure with fluvoxamine” value [3] of the same compound?
A: Its value is 3.7-6.6 fold.

Q: What about the “Mean AUC increase with fluvoxamine” value [3] of the same compound?
A: Its value is 6.6 fold.

Q: And the “Mean Cmax increase with fluvoxamine” value [3]?
A: The value was 3.7 fold.

Q: And the Tmax ([4]; both sexes)?
A: The Tmax was 1.75 h.

Q: And the Tmax at 7 day ([4]; both sexes)?
A: The Tmax at 7 day was 1.5 h.

Q: What about the AUC(0-inf) ([4]; both sexes, 2 mg) of the same compound?
A: The AUC(0-inf) was 22.3 ng·h/mL.

Q: What about the AUC ([4]; both sexes, 2 mg, AUC(0-τ)) of the same compound?
A: The AUC was 21 ng·h/mL.

Q: What about the Cmax ([4]; both sexes, 2 mg, Cmax) of the same compound?
A: Its Cmax is 6.63 ng/mL.

Q: What about the Cmax at 7 day ([4]; both sexes, 2 mg, Cmax) of the same compound?
A: Its Cmax at 7 day is 7.55 ng/mL.

Q: What about the Cmax ([4]; both sexes, 2 mg, Plasma Cmax) of the same compound?
A: The Cmax was 6 to 7 ng/mL.

Q: What about the half-life ([4]; both sexes, 2 mg, T½) of the same compound?
A: The half-life was 1.6 h.

Q: What about the half-life ([4]; both sexes, Half-life) of the same compound?
A: The half-life was 1 to 2 h.

Q: And the “AUC accumulation ratio Day 7/Day 1” value ([4]; both)?
A: Its value is 105^d %.

Q: What about the “Cmax accumulation ratio Day 7/Day 1” value ([4]; both) of the same compound?
A: Its value is 110^e %.

Q: What about the “Linearity Ratio” value ([4]; both) of the same compound?
A: The value was 99%.

Q: What about the “AUC(0-τ)” value ([4]; both, 2 mg) of the same compound?
A: Its value is 23.5 (44) ng · h/mL.

Q: And the “Intersubject % CV for AUC and Cmax” value ([4]; both, 2 mg)?
A: The value was 44-56%.

Q: And the T½ ([4]; both, 2 mg)?
A: Its T½ is 1.64 (18) h.

Q: And the pKi (human 5-HT3 receptor)?
A: Its pKi is 9.4.
